Results reported in US5466671A, “Apidaecin-type peptide antibiotics with improved activities and/or different antibacterial spectrum” (priority 1994, dated 1995).
Residues, ends and D or L forms follow the SMILES beside them.

Experiments:
Enterobacter cloacae = assay: Inhibition zone assay (agar plate); format: cell-based; conditions: for Inhibition zones: in mm diameter: 50 nanomoles per well (3 mm diameter)
[1] = tested on: Escherichia coli (ATCC11775); assay: Inhibition zone assay (agar plate); format: cell-based; conditions: for Inhibition zones: in mm diameter: 50 nanomoles per well (3 mm diameter)
Shigella dysenteriae = format: cell-based; conditions: for Inhibition zones: in mm diameter: 50 nanomoles per well (3 mm diameter)
[2] = tested on: Agrobacterium tumefaciens; assay: Inhibition zone assay (agar plate); format: cell-based; conditions: 50 nanomoles per well (3 mm diameter)
E. coli D22 = format: cell-based; conditions: 50 nanomoles per well (3 mm diameter)
Klebsiella pneumoniae = assay: Inhibition zone assay (agar plate); format: cell-based; conditions: for Inhibition zones: in mm diameter: 50 nanomoles per well (3 mm diameter)
Erwinia amylovora = assay: Inhibition zone assay (agar plate); format: cell-based
Salmonella typhi = format: cell-based; conditions: for Inhibition zones: in mm diameter: 50 nanomoles per well (3 mm diameter)
Pseudomonas syringae = assay: Inhibition zone assay (agar plate); format: cell-based
Salmonella typhimurium = assay: Inhibition zone assay (agar plate); format: cell-based; conditions: for Inhibition zones: in mm diameter: 50 nanomoles per well (3 mm diameter)
A. calcoaceticus = assay: Minimal inhibitory concentration (liquid culture); conditions: inoculum 16 × 10^6 CFU/ml; a-b = highest concentration with growth - lowest without growth
Rhizobium meliloti = assay: Inhibition zone assay (agar plate); format: cell-based; conditions: 50 nanomoles/well, 3 mm wells
E. coli Apid^R = assay: Minimal inhibitory concentration (liquid culture); format: cell-based; conditions: a-b = highest concentration with growth - lowest without growth
Text: For details see `Experimental Procedures`.

Morganella morganii = assay: Inhibition zone assay (agar plate); format: cell-based; conditions: 50 nanomoles/well, 3 mm wells
E. coli 11775 = assay: Minimal inhibitory concentration (liquid culture); conditions: a-b = highest concentration with growth - lowest without growth
S. typhimurium = assay: Minimal inhibitory concentration (liquid culture); conditions: inoculum 8 × 10^6 CFU/ml; a-b = highest concentration with growth - lowest without growth
E. coli 23802 = assay: Minimal inhibitory concentration (liquid culture); conditions: inoculum 5000 CFU/ml; a-b = highest concentration with growth - lowest without growth
Y. enterocolitica = assay: Minimal inhibitory concentration (liquid culture); conditions: inoculum 5000 CFU/ml; a-b = highest concentration with growth - lowest without growth
E. coli 25922 = assay: Minimal inhibitory concentration (liquid culture); conditions: inoculum 1100 CFU/ml; a-b = highest concentration with growth - lowest without growth
M. morganii = assay: Minimal inhibitory concentration (liquid culture); conditions: inoculum 400 CFU/ml; a-b = highest concentration with growth - lowest without growth
Yersinia enterocolitica = assay: Inhibition zone assay (agar plate); format: cell-based; conditions: 50 nanomoles/well, 3 mm wells
[3] = tested on: Acinetobacter calcoaceticus; assay: Inhibition zone assay (agar plate); format: cell-based; conditions: 50 nanomoles per well (3 mm diameter)
[4] = 50 nanomoles per well (3 mm diameter)
[5] = agar plate, 50 nanomoles/well, 3 mm wells

CC(C)C[C@H](NC(=O)[C@H](CCCNC(=N)N)NC(=O)[C@@H]1CCCN1C(=O)[C@H](Cc1c[nH]cn1)NC(=O)[C@@H]1CCCN1C(=O)[C@@H]1CCCN1C(=O)[C@H](CCCNC(=N)N)NC(=O)[C@@H]1CCCN1C(=O)[C@@H]1CCCN1C(=O)[C@@H](NC(=O)[C@H](CCC(N)=O)NC(=O)[C@H](CCC(N)=O)NC(=O)[C@@H]1CCCN1C(=O)[C@H](CCCNC(=N)N)NC(=O)[C@@H]1CCCN1C(=O)[C@H](CCCCN)NC(=O)[C@@H](N)Cc1ccccc1)C(C)C)C(=O)O [HoFP, F K P R P Q Q V P P R P P H P R L] (H-FKPRPQQVPPRPPHPRL-OH)
Inhibition zones: in mm diameter (Enterobacter cloacae): 14 mm
Inhibition zones: in mm diameter [1]: 13 mm
Inhibition zones: in mm diameter (Shigella dysenteriae): 18 mm
Inhibition zones: in mm diameter [2]: 11 mm
Inhibition zones: in mm diameter (E. coli D22): 16 mm
Inhibition zones: in mm diameter (Klebsiella pneumoniae): 14 mm
Inhibition zones: in mm diameter (Erwinia amylovora; [4]): 11 mm
Inhibition zones: in mm diameter (Salmonella typhi): 13 mm
Inhibition zones: in mm diameter (Pseudomonas syringae; [4]): 12 mm
Inhibition zones: in mm diameter (Salmonella typhimurium): 12 mm

SQPRPQPFKPRPQQVPPRTPHPR (SQPRPQPFKPRPQQVPPRTPHPR) [PAB-FT 12-35]
Inhibition zones: in mm diameter (Enterobacter cloacae): 11 mm
Inhibition zones: in mm diameter [1]: 10 mm
Inhibition zones: in mm diameter (Shigella dysenteriae): 11 mm
Inhibition zones: in mm diameter (E. coli D22): 10 mm
Inhibition zones: in mm diameter (Klebsiella pneumoniae): 6 mm
Inhibition zones: in mm diameter (Salmonella typhi): 5 mm

CC(C)C[C@H](NC(=O)[C@H](CCCNC(=N)N)NC(=O)[C@@H]1CCCN1C(=O)[C@H](Cc1c[nH]cn1)NC(=O)[C@@H]1CCCN1C(=O)[C@@H]1CCCN1C(=O)[C@H](CCCNC(=N)N)NC(=O)[C@@H]1CCCN1C(=O)[C@@H]1CCCN1C(=O)[C@@H](NC(=O)[C@H](CCC(N)=O)NC(=O)[C@H](CCC(N)=O)NC(=O)[C@@H]1CCCN1C(=O)[C@@H](N)CCCNC(=N)N)C(C)C)C(=O)O [Ho -, Arg--Pro--Gln--Gln--Val--Pro--Pro--Arg--Pro--Pro--His--Pro--Arg--Leu] (H-RPQQVPPRPPHPRL-OH)
minimal inhibitory concentration (MIC) (A. calcoaceticus): > 20 µg/mL
inhibition zone diameter (number of plus signs) (Enterobacter cloacae; [5]): + ((+) 5-6 mm)
inhibition zone diameter (number of plus signs) (Rhizobium meliloti): ++++ ((++++) 15-19 mm)
inhibition zone diameter (number of plus signs) [1, 5]: +++ ((+++) 10-14 mm)
inhibition zone diameter (number of plus signs) (Shigella dysenteriae; [5]): + ((+) 5-6 mm)
minimal inhibitory concentration (MIC) (E. coli Apid^R; inoculum 12 × 10^6 CFU/ml): > 40 µg/mL
minimal inhibitory concentration (MIC) (E. coli Apid^R; inoculum 1000 CFU/ml): > 40 µg/mL
inhibition zone diameter (number of plus signs) (Morganella morganii): ++ ((++) 7-9 mm)
minimal inhibitory concentration (MIC) (E. coli 11775; inoculum 16 × 10^6 CFU/ml): 10 to 20 µg/mL
minimal inhibitory concentration (MIC) (E. coli 11775; inoculum 1200 CFU/ml): 0.5 to 1 µg/mL
inhibition zone diameter (number of plus signs) (Klebsiella pneumoniae; [5]): + ((+) 5-6 mm)
minimal inhibitory concentration (MIC) (S. typhimurium): 5 to 10 µg/mL
minimal inhibitory concentration (MIC) (E. coli 23802): > 40 µg/mL
inhibition zone diameter (number of plus signs) (Erwinia amylovora; [5]): ++ ((++) 7-9 mm)
inhibition zone diameter (number of plus signs) (Salmonella typhi; [5]): + ((+) 5-6 mm)
minimal inhibitory concentration (MIC) (Y. enterocolitica): 10 to 20 µg/mL
minimal inhibitory concentration (MIC) (E. coli 25922): 10 to 20 µg/mL
minimal inhibitory concentration (MIC) (M. morganii): 10 to 20 µg/mL
inhibition zone diameter (number of plus signs) (Pseudomonas syringae; [5]): +++ ((+++) 10-14 mm)
inhibition zone diameter (number of plus signs) (Salmonella typhimurium; [5]): + ((+) 5-6 mm)
inhibition zone diameter (number of plus signs) (Yersinia enterocolitica): ++ ((++) 7-9 mm)

QVPIRPSQPRPQPFKPRPQQVPPRTPHPR (QVPIRPSQPRPQPFKPRPQQVPPRTPHPR) [PAB-FT 6-35]
Inhibition zones: in mm diameter (Enterobacter cloacae): 12 mm
Inhibition zones: in mm diameter [3]: 10 mm
Inhibition zones: in mm diameter [1]: 13 mm
Inhibition zones: in mm diameter (Shigella dysenteriae): 12 mm
Inhibition zones: in mm diameter (E. coli D22): 14 mm
Inhibition zones: in mm diameter (Klebsiella pneumoniae): 11 mm
Inhibition zones: in mm diameter (Salmonella typhi): 14 mm
Inhibition zones: in mm diameter (Salmonella typhimurium): 8 mm
